Patent publication US12291502B2, “Topoisomerase II-alpha inhibitors and methods of treating cancer using the same” (The Regents of the University of Colorado, priority 2019, dated 2025)
“Also recorded” adds a separate entry of the source.

Experiments:
[1] = tested on: H2AX S139 phosphorylation (γ-H2AX) in colon cancer cell lines HT29 and SW620; experiment: γ-H2AX DNA damage assay (immunofluorescence); assay type: cell-based; details: 0-40 μM for Neo, 7, BAP1, 5-100 μM for etoposide
Protocol: γ-H2AXDNA damage assay. Colon cancer cell lines HT29 and SW620 were plated to black clear bottom 96 well plates at 20,000 cells/well in 100 μL of phenol red free medium. […] Cells were fixed with 4% paraformaldehyde at room temp for 20 min, washed 3 times with 400 μL/well of PBS, permeabilized and blocked with 100 μL of 3% BSA and 0.1% IGEPAL in PBS for 20 min. Cells were then incubated in γ-H2AX primary antibody (Cell Signaling, 1:400 dilution) at 4° C. overnight, washed 4 times with PBS, and incubated with FITC conjugated anti-rabbit secondary antibody (Cell Signaling, 1:200 dilution) at room temp for 1 hour, and washed 4 times with PBS. Cells were stained with 10 μM of Hoechst 33342 at room temp for 10 min, washed 4 times with PBS before imaged with a 20× objective using PerkinElmer Operetta imager.

SW620 cells = experiment: Clonogenic assay (24 h pretreatment of cells); assay type: cell-based; details: SW620 cells pretreated 24 hours, colonies over 7 days vs DMSO
Protocol: Clonogenic assay. SW620 cells were plated to allow for 70% confluency within 24 hours. Analogs 3, 7, and vehicle (DMSO) were then added to cells for 24 hours as pretreatment. A total of 1000 viable cells per well were plated into a six-well plate and medium was changed 2× per week. […] The fixed colonies were stained with 0.5% (w/v) crystal violet in 25% (v/v) methanol solution for 2 hours at room temperature. The stain was rinsed off with water and the plate was air dried at room temperature. Digital pictures were taken, and the images were saved in greyscale (8-bit). Images were adjusted for threshold with imaged software (Bethesda, MD, USA), the area of analysis was circled, and particles were analyzed by size (100-2000) and circularity (0.5-1).
After characterizing 3 and 7 as TOP2A ATP-competitive inhibitors, these compounds were next tested for their ability to inhibit TOP2A-dependent TCF-transcription using the well characterized TOPflash (TOP) luminescent reporter, which was used to generate a stably transduced SW620-TOP reporter cells as described previously (Zhou, et al., Oncogene 2016, 35:4990-9). These cells were used to generate single 3D tumor organoids (700 μm in diameter) uniformly arrayed in 96-well plates, which mimic aspects of tumor function observed in vivo. […]

SW620 tumor organoids = experiment: 3D invasion assay; assay type: cell-based; details: SW620 tumor organoids treated 72 hours, viable cells incubated further 72 hours
Protocol: 3D Invasion Assay. SW620 cells were transduced with NucLight®-Red virus (Essen BioSciences, MI) and selected with Zeocin (200 μg/mL). Transduced cells were cultured in RPMI-1640 media supplemented with 5% FBS and allowed to grow in a […] until ˜80% confluent. Afterwards, cells were plated in a CellCarrier Spheroid Ultra-Low Attachment 96-well plate (PerkinElmer, MA) at 5,000 cells/well in 2% Matrigel (Corning, NY) and allowed to grow for 72 hours. Cells were then treated with 10 μM of analogs […] and cultured for an additional 72 hours. Organoids were then collected, half a 96-well plate per treatment condition, spun down at 500 g, washed with PBS, and dissociated with 500 μL of Cultrex® Organoid Harvesting Solution (Trevigen, MD) for 30 min in ice with moderate mixing. Single cells were then spun down at 500 g, the supernatant was discarded, cells were washed with PBS, re-centrifuged, and resuspended in RPMI-1640 media supplemented with 0.5% FBS. Live cells were counted and then plated in an Incucyte® ClearView 96-well cell migration plate (Essen BioSciences, MI) in a 1:1 ratio of Matrigel (Corning, NY) and RPMI-1640 media supplemented with 0.5% FBS and 1% penicillin/streptomycin at 5,000 cells/well. […] Cell invasion was monitored using the Incucyte® ZOOM imaging system (Essen BioSciences, MI) for bottom fluorescence of invading cells per manufacturer's recommendations. […]

tumor xenograft = experiment: Tumor xenograft study, tumor growth; assay type: in vivo, athymic nude mouse; details: i.p. 50 mg/kg, 5× per week over 28 days
Protocol: Finally, a major goal of this drug design approach was to improve the in vivo physicochemical properties of TOP2A inhibitors compared to the natural product neo. Therefore, an in vivo study was conducted using the athymic nude mouse tumor xenograft model to determine if one of these drug leads could accumulate in tumors when administered via intraperitoneal injection (i.p.). […] Thus, compound 42 was administered i.p. at 50 mg/kg, 5× per week over 28 days.

[2] = Water solubility (stated); assay type: physicochemical

SMILES	DNA double stranded breaks (γ-H2AX) [1]	clonogenic colony formation, in words (SW620 cells)	invasive potential, in words (SW620 tumor organoids)	tumor growth (tumor xenograft)	water solubility, in words [2]	DNA double stranded breaks (γ-H2AX) ([1]; listed as Neo)
CC(=O)Nc1ccc2c(-c3cc(F)ccc3O)ccnc2c1O [Analog 7]	do not damage DNA; also recorded: do not cause DNA DSBs	sufficient to inhibit colony formation; also recorded: significantly inhibit clonogenic colony formation	inhibit the invasive potential			
O=C(CCN1CCOCC1)Nc1ccc2c(-c3cc(F)ccc3O)ccnc2c1O [Analog 42]				no loss of any tumor growth was observed	water soluble; also recorded: significantly improved water solubility	
Cn1ccc2c(c1=O)C(=O)c1nccc3c1C2NC1=CCC=CC13 (stereo not shown) [neo, neoamphimedine, reference compound]	do not damage DNA					do not cause DNA DSBs
